# Molecular target: hNav1.7 (Homo sapiens, UniProt Q15858)
# Test: cell-based
# Type: cell-based
# Conditions: PatchXpress Nav1.7, whether block washes out (Yes/No)
# hNav1.7, sequence (Q15858 whole entry): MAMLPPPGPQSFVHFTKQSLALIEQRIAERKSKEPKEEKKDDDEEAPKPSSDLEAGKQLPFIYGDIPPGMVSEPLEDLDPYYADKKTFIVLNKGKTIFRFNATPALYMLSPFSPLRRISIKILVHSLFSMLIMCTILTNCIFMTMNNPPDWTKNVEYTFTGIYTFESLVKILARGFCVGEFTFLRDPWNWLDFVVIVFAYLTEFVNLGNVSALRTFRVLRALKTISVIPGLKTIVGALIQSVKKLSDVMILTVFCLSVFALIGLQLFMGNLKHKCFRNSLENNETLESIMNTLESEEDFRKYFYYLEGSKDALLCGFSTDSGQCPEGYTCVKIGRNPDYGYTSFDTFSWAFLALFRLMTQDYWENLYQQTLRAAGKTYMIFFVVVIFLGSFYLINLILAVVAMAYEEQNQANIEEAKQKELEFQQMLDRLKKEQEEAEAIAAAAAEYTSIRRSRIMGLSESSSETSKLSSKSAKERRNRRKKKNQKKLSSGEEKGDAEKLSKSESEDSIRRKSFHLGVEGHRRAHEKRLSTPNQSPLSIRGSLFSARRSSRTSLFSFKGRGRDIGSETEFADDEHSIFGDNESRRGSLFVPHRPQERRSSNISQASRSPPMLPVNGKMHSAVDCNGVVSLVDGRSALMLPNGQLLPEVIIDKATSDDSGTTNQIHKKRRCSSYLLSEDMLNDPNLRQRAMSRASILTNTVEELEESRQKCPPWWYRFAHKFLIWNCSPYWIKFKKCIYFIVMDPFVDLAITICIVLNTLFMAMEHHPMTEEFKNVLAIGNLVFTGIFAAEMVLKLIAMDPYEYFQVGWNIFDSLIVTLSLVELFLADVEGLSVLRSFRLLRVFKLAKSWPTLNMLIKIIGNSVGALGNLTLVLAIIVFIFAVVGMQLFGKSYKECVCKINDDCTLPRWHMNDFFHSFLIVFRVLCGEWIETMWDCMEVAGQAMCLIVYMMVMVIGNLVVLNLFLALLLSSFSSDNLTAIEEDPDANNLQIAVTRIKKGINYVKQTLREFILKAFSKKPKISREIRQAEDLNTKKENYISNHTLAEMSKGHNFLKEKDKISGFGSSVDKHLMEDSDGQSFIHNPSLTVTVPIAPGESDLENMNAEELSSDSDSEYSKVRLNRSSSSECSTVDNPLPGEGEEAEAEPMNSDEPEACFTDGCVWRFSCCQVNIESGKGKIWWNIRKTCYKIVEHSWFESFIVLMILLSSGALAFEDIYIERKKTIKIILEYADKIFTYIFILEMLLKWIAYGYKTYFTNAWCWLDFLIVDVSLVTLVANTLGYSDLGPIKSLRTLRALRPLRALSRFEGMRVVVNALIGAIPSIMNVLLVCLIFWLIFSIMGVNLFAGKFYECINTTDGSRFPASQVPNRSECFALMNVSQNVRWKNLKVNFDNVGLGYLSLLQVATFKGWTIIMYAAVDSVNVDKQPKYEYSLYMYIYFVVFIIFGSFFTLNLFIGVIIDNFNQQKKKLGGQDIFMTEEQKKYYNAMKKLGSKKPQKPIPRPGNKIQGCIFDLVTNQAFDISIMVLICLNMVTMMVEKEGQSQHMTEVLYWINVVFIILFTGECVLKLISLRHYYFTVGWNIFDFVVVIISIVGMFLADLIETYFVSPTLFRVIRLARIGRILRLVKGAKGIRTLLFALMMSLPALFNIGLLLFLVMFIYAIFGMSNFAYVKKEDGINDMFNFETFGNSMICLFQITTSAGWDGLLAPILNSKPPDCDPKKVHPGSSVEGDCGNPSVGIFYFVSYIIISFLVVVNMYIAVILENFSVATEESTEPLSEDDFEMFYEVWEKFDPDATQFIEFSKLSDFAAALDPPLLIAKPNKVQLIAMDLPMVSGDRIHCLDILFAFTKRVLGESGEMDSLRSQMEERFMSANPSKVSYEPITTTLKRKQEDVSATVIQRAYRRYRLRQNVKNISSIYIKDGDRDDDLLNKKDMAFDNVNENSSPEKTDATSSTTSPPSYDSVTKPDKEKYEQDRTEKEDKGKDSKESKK
row,SMILES,Wash out
1,CCCC[C@@H]1NC(=O)[C@H](Cc2c[nH]c3ccccc23)NC(=O)[C@H](CCCCN)NC(=O)[C@H](CCC(N)=O)NC(=O)[C@@H](NC(=O)[C@H](Cc2ccc(O)cc2)NC(=O)[C@@H](N)Cc2cn(CCOCCOCCOCCOCCOCCOCCOCCOCCOCCOCCOCCOCCOCCOCCOCCOCCOCCOCCOCCOCCOCCOCCOCCNC(=O)c3cc(CN)cc(C(=O)NCCOCCOCCOCCOCCOCCOCCOCCOCCOCCOCCOCCOCCOCCOCCOCCOCCOCCOCCOCCOCCOCCOCCOCCn4cc(C[C@H](N)C(=O)N[C@@H](Cc5ccc(O)cc5)C(=O)N[C@H]5CSSC[C@@H]6NC(=O)[C@@H]7CSSC[C@@H](C(=O)N[C@@H](CCCNC(=N)N)C(=O)N[C@@H](CCCCN)C(=O)N[C@@H](CCC(=O)O)C(=O)N[C@H](C(N)=O)[C@@H](C)CC)NC(=O)[C@H](Cc8c[nH]c9ccccc89)NC(=O)[C@H](CC(C)C)NC(=O)[C@H](CCCCN)NC(=O)[C@H](CSSC[C@H](NC(=O)[C@H]([C@@H](C)O)NC(=O)[C@H](Cc8c[nH]c9ccccc89)NC(=O)[C@H](CCCC)NC(=O)[C@H](Cc8c[nH]c9ccccc89)NC(=O)[C@H](CCCCN)NC(=O)[C@H](CCC(N)=O)NC5=O)C(=O)N[C@@H](CC(=O)O)C(=O)N[C@@H](CO)C(=O)N[C@@H](CCCCN)C(=O)N[C@@H](CCCNC(=N)N)C(=O)N[C@@H](C)C(=O)N7)NC(=O)[C@H](CCCNC(=N)N)NC(=O)[C@H](CC(C)C)NC(=O)CNC(=O)[C@H](CCC(=O)O)NC6=O)nn4)c3)nn2)CSSC[C@@H]2NC(=O)[C@@H]3CSSC[C@@H](C(=O)N[C@@H](CCCNC(=N)N)C(=O)N[C@@H](CCCCN)C(=O)N[C@@H](CCC(=O)O)C(=O)N[C@H](C(N)=O)[C@@H](C)CC)NC(=O)[C@H](Cc4c[nH]c5ccccc45)NC(=O)[C@H](CC(C)C)NC(=O)[C@H](CCCCN)NC(=O)[C@H](CSSC[C@H](NC(=O)[C@H]([C@@H](C)O)NC(=O)[C@H](Cc4c[nH]c5ccccc45)NC1=O)C(=O)N[C@@H](CC(=O)O)C(=O)N[C@@H](CO)C(=O)N[C@@H](CCCCN)C(=O)N[C@@H](CCCNC(=N)N)C(=O)N[C@@H](C)C(=O)N3)NC(=O)[C@H](CCCNC(=N)N)NC(=O)[C@H](CC(C)C)NC(=O)CNC(=O)[C@H](CCC(=O)O)NC2=O [Homodimeric Peptide No. 7],No

# Same assay, conditions: ratio of PX tonic IC50 values; Table 11
SMILES,Nav1.4/Nav1.7,Nav1.5/Nav1.7
CCCC[C@@H]1NC(=O)[C@H](Cc2c[nH]c3ccccc23)NC(=O)[C@H](CCCCN)NC(=O)[C@H](CCC(N)=O)NC(=O)[C@@H](NC(=O)[C@H](Cc2ccc(O)cc2)NC(=O)[C@H](N)CC(C)C)CSSC[C@@H]2NC(=O)[C@@H]3CSSC[C@@H](C(=O)N[C@@H](CCCNC(=N)N)C(=O)N[C@@H](CCCCN)C(=O)N[C@@H](CCC(=O)O)C(=O)N[C@H](C(N)=O)[C@@H](C)CC)NC(=O)[C@H](Cc4c[nH]c5ccccc45)NC(=O)[C@H](CC(C)C)NC(=O)[C@H](CCCCN)NC(=O)[C@H](CSSC[C@H](NC(=O)[C@H]([C@@H](C)O)NC(=O)[C@H](Cc4c[nH]c5ccccc45)NC1=O)C(=O)N[C@@H](CC(=O)O)C(=O)N[C@@H](CO)C(=O)N[C@@H](CCCCN)C(=O)N[C@@H](CCCNC(=N)N)C(=O)N[C@@H](C)C(=O)N3)NC(=O)[C@H](CCCNC(=N)N)NC(=O)[C@H](CC(C)C)NC(=O)CNC(=O)[C@H](CCCCNC(=O)CCOCCOCCOCCOCCOCCOCCOCCOCCOCCOCCOCCOCCN)NC2=O [compound 464],18,
CCCC[C@@H]1NC(=O)[C@H](Cc2c[nH]c3ccccc23)NC(=O)[C@H](CCCCN)NC(=O)[C@H](CCC(N)=O)NC(=O)[C@@H](NC(=O)[C@H](Cc2ccccc2)NC(=O)[C@@H](N)CC#N)CSSC[C@@H]2NC(=O)[C@@H]3CSSC[C@@H](C(=O)N[C@@H](CCCNC(=N)N)C(=O)N[C@@H](CCCCN)C(=O)N[C@@H](CCC(=O)O)C(=O)N[C@H](C(N)=O)[C@@H](C)CC)NC(=O)[C@H](Cc4c[nH]c5ccccc45)NC(=O)[C@H](CC(C)C)NC(=O)[C@H](CCCCN)NC(=O)[C@H](CSSC[C@H](NC(=O)[C@H]([C@@H](C)O)NC(=O)[C@H](Cc4c[nH]c5ccccc45)NC1=O)C(=O)N[C@@H](CC(=O)O)C(=O)N[C@@H](CO)C(=O)N[C@@H](CCCCN)C(=O)N[C@@H](CCCNC(=N)N)C(=O)N[C@@H](C)C(=O)N3)NC(=O)[C@H](CCCNC(=N)N)NC(=O)[C@H](CC(C)C)NC(=O)CNC(=O)[C@H](CCCCNC(=O)CCOCCOCCOCCOCCOCCOCCOCCOCCOCCOCCOCCOCCN)NC2=O [compound 551],13,
CCCC[C@@H]1NC(=O)[C@H](Cc2c[nH]c3ccccc23)NC(=O)[C@H](CCCCN)NC(=O)[C@H](CCC(N)=O)NC(=O)[C@@H](NC(=O)[C@H](CCCCNC(=O)CCOCCOCCOCCOCCOCCOCCOCCOCCOCCOCCOCCOCCN)NC(=O)[C@@H](N)CC#N)CSSC[C@@H]2NC(=O)[C@@H]3CSSC[C@@H](C(=O)N[C@@H](CCCNC(=N)N)C(=O)N[C@@H](CCCCN)C(=O)N[C@@H](CCC(=O)O)C(=O)N[C@H](C(N)=O)[C@@H](C)CC)NC(=O)[C@H](Cc4c[nH]c5ccccc45)NC(=O)[C@H](CC(C)C)NC(=O)[C@H](CCCCN)NC(=O)[C@H](CSSC[C@H](NC(=O)[C@H]([C@@H](C)O)NC(=O)[C@H](Cc4c[nH]c5ccccc45)NC1=O)C(=O)N[C@@H](CC(=O)O)C(=O)N[C@@H](CO)C(=O)N[C@@H](CCCCN)C(=O)N[C@@H](CCCNC(=N)N)C(=O)N[C@@H](C)C(=O)N3)NC(=O)[C@H](CCCNC(=N)N)NC(=O)[C@H](CC(C)C)NC(=O)CNC(=O)[C@H](CCC(=O)O)NC2=O [compound 563],126,
CCCC[C@@H]1NC(=O)[C@H](Cc2c[nH]c3ccccc23)NC(=O)[C@H](CCCCN)NC(=O)[C@H](CCC(N)=O)NC(=O)[C@@H](NC(=O)[C@H](Cc2ccc(O)cc2)NC(=O)[C@@H](N)CC#N)CSSC[C@@H]2NC(=O)[C@@H]3CSSC[C@@H](C(=O)N[C@@H](CCCNC(=N)N)C(=O)N[C@@H](CCCCN)C(=O)N[C@@H](CCC(=O)O)C(=O)N[C@H](C(N)=O)[C@@H](C)CC)NC(=O)[C@H](Cc4c[nH]c5ccccc45)NC(=O)[C@H](CC(C)C)NC(=O)[C@H](CCCCN)NC(=O)[C@H](CSSC[C@H](NC(=O)[C@H]([C@@H](C)O)NC(=O)[C@H](Cc4c[nH]c5ccccc45)NC1=O)C(=O)N[C@@H](CC(=O)O)C(=O)N[C@@H](CCCCNC(=O)CCOCCOCCOCCOCCOCCOCCOCCOCCOCCOCCOCCOCCN)C(=O)N[C@@H](CCCCN)C(=O)N[C@@H](CCCNC(=N)N)C(=O)N[C@@H](C)C(=O)N3)NC(=O)[C@H](CCCNC(=N)N)NC(=O)[C@H](CC(C)C)NC(=O)CNC(=O)[C@H](CCC(=O)O)NC2=O [compound 565],75,
CCCC[C@@H]1NC(=O)[C@H](Cc2c[nH]c3ccccc23)NC(=O)[C@H](CCCCN)NC(=O)[C@H](CCC(N)=O)NC(=O)[C@@H](NC(=O)[C@H](Cc2ccc(O)cc2)NC(=O)[C@H](CCC)NC(=O)[C@@H](N)CC(C)C)CSSC[C@@H]2NC(=O)[C@@H]3CSSC[C@@H](C(=O)N[C@@H](CCCNC(=N)N)C(=O)N[C@@H](CCCCN)C(=O)N[C@@H](CCC(=O)O)C(=O)N[C@H](C(N)=O)[C@@H](C)CC)NC(=O)[C@H](Cc4c[nH]c5ccccc45)NC(=O)[C@H](CC(C)C)NC(=O)[C@H](CCCCN)NC(=O)[C@H](CSSC[C@H](NC(=O)[C@H]([C@@H](C)O)NC(=O)[C@H](Cc4c[nH]c5ccccc45)NC1=O)C(=O)N[C@@H](CC(=O)O)C(=O)N[C@@H](CO)C(=O)N[C@@H](CCCCN)C(=O)N[C@@H](CCCNC(=N)N)C(=O)N[C@@H](CCCCNC(=O)CCOCCOCCOCCOCCOCCOCCOCCOCCOCCOCCOCCOCCN)C(=O)N3)NC(=O)[C@H](CCCNC(=N)N)NC(=O)[C@H](CC(C)C)NC(=O)CNC(=O)[C@H](CCC(=O)O)NC2=O [compound 470],34,372
CCCC[C@@H]1NC(=O)[C@H](Cc2c[nH]c3ccccc23)NC(=O)[C@H](CCCCN)NC(=O)[C@H](CCC(N)=O)NC(=O)[C@@H](NC(=O)[C@H](Cc2ccc(O)cc2)NC(=O)CCN)CSSC[C@@H]2NC(=O)[C@@H]3CSSC[C@@H](C(=O)N[C@@H](CCCNC(=N)N)C(=O)N[C@@H](CCCCN)C(=O)N[C@H](C(=O)N[C@H](C(N)=O)[C@@H](C)CC)[C@@H](C)CC)NC(=O)[C@H](Cc4c[nH]c5ccccc45)NC(=O)[C@H](CC(C)C)NC(=O)[C@H](CCCCN)NC(=O)[C@H](CSSC[C@H](NC(=O)[C@H]([C@@H](C)O)NC(=O)[C@H](Cc4c[nH]c5ccccc45)NC1=O)C(=O)N[C@@H](CC(=O)O)C(=O)N[C@@H](CO)C(=O)N[C@@H](CCCCN)C(=O)N[C@@H](CCCNC(=N)N)C(=O)N[C@@H](C)C(=O)N3)NC(=O)[C@H](CCCNC(=N)N)NC(=O)[C@H](CC(C)C)NC(=O)CNC(=O)[C@H](CCC(=O)O)NC2=O [compound 376],3,731
CC[C@H](C)[C@H](NC(=O)[C@H](Cc1ccc(O)cc1)NC(=O)[C@H](CCCCN)NC(=O)[C@H](CCCNC(=N)N)NC(=O)[C@@H]1CSSC[C@@H]2NC(=O)[C@H](C)NC(=O)[C@H](CCCNC(=N)N)NC(=O)[C@H](CCCCN)NC(=O)[C@H](CO)NC(=O)[C@H](CC(=O)O)NC(=O)[C@@H]3CSSC[C@H](NC(=O)[C@H](CCC(=O)O)NC(=O)[C@H](CC(C)C)NC(=O)CNC(=O)[C@H](CCC(=O)O)NC(=O)[C@H](CSSC[C@H](NC(=O)[C@@H](N)Cc4ccc(O)cc4)C(=O)N[C@@H](CCC(N)=O)C(=O)N[C@@H](CCCCN)C(=O)N[C@@H](Cc4ccccc4)C(=O)N[C@@H](CCSC)C(=O)N[C@@H](Cc4c[nH]c5ccccc45)C(=O)N[C@@H]([C@@H](C)O)C(=O)N3)NC2=O)C(=O)N[C@@H](CCCCN)C(=O)N[C@@H](CC(C)C)C(=O)N[C@@H](Cc2c[nH]c3ccccc23)C(=O)N1)C(N)=O [compound 193],217,217

# Molecular target: hNav1.4 (Homo sapiens, UniProt P35499)
# Test: cell-based
# Type: cell-based
# Conditions: Table 12; ratio of PX tonic IC50 values
# hNav1.4, sequence (P35499 whole entry): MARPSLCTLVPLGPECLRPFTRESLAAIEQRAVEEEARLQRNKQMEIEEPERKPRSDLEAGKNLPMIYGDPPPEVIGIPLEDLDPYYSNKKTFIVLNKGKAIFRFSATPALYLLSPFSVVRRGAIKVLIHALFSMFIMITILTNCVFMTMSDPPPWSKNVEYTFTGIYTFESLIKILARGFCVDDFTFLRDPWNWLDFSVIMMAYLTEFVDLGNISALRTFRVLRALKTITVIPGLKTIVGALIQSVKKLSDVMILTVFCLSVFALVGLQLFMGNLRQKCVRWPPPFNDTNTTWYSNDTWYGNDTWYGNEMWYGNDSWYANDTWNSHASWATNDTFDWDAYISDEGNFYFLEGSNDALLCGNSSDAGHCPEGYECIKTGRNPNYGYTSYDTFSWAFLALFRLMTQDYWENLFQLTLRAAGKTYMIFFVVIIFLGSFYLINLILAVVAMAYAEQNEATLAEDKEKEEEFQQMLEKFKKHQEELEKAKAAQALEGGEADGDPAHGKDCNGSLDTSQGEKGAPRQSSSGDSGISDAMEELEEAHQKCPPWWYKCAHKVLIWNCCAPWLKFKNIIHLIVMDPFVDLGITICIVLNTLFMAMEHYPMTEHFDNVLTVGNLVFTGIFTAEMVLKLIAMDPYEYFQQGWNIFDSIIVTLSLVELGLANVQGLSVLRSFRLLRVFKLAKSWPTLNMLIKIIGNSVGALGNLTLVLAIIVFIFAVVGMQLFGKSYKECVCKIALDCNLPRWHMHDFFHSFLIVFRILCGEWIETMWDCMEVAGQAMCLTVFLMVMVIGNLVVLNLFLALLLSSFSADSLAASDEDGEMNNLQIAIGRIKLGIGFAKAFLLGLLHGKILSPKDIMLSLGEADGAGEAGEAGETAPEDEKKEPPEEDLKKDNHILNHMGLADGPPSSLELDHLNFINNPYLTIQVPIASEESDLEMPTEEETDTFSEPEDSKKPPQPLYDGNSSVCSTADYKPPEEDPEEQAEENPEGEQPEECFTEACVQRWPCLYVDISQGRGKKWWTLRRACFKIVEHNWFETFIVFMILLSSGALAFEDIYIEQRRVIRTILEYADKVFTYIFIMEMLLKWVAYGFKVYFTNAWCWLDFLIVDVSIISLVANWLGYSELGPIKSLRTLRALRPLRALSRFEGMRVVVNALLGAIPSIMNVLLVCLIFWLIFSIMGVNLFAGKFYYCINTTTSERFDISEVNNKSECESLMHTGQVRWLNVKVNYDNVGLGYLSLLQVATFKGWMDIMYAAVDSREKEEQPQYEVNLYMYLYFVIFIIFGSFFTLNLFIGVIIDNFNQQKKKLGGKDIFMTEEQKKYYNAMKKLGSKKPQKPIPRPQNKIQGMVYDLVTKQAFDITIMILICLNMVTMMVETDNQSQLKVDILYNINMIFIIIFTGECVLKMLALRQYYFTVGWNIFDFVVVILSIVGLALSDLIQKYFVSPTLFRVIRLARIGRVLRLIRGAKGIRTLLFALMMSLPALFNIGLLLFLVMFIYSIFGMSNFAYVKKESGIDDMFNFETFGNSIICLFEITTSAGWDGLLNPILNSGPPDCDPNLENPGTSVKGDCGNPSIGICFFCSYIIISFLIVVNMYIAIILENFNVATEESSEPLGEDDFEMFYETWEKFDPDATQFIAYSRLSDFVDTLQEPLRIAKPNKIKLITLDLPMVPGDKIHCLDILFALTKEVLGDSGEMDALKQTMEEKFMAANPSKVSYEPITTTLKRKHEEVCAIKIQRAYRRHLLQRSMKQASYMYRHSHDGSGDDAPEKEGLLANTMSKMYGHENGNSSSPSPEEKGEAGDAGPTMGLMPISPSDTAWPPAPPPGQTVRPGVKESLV
row,SMILES,Nav1.4/Nav1.7
1,C#CC[C@@H]1NC(=O)[C@@H]2CSSC[C@H](NC(=O)[C@H](Cc3ccc(O)cc3)NC(=O)[C@@H](N)CC#N)C(=O)N[C@@H](CCC(N)=O)C(=O)N[C@@H](CCCCN)C(=O)N[C@@H](Cc3c[nH]c4ccccc34)C(=O)N[C@@H](CCCC)C(=O)N[C@@H](Cc3c[nH]c4ccccc34)C(=O)N[C@@H]([C@@H](C)O)C(=O)N[C@H]3CSSC[C@H](NC(=O)[C@H](CCC(=O)O)NC(=O)[C@H](CC(C)C)NC(=O)CNC1=O)C(=O)N[C@@H](CCCCN)C(=O)N[C@@H](CC(C)C)C(=O)N[C@@H](Cc1c[nH]c4ccccc14)C(=O)N[C@H](C(=O)N[C@@H](CCCNC(=N)N)C(=O)N[C@@H](CCCCN)C(=O)N[C@@H](Cc1ccc(O)cc1)C(=O)N[C@H](C(N)=O)[C@@H](C)CC)CSSC[C@H](NC(=O)[C@H](C)NC(=O)[C@H](CCCNC(=N)N)NC(=O)[C@H](CCCCN)NC(=O)[C@H](CO)NC(=O)[C@H](CC(=O)O)NC3=O)C(=O)N2 [compound 397],20
